One data set deals with hERG (KCNH2) (Homo sapiens, UniProt Q12809). In words: in vitro.
Another data set addresses Histamine H3 receptor (Homo sapiens, UniProt Q9Y5N1). In words: Binding affinity at histamine H3 receptor by hH3-[35S]GTPgamma[S] binding assay. It counts as functional. (GTPγS is a poorly hydrolysed GTP analogue; its binding reports G protein activation.)
In the next data set the target is T1, Cytochrome P450 1A2 (Homo sapiens, UniProt P05177).
T1 sequence (P05177 whole entry): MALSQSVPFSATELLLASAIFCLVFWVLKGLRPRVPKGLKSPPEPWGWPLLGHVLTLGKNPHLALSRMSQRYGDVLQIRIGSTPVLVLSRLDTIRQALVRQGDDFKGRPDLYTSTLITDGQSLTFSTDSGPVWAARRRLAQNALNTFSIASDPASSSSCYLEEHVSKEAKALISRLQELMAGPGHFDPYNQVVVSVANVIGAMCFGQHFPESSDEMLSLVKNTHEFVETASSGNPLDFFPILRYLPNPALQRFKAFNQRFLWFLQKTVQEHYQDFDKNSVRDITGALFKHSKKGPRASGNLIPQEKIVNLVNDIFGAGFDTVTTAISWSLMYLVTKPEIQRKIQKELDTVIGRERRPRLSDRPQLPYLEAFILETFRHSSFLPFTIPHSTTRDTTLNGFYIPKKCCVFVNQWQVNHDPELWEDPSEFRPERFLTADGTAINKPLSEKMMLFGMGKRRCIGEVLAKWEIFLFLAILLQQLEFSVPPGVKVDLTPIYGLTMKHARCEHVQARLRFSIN

The target of a further data set is Cytochrome P450 3A4 (Homo sapiens, UniProt P08684).
Sequence of Cytochrome P450 3A4 (P08684 whole entry): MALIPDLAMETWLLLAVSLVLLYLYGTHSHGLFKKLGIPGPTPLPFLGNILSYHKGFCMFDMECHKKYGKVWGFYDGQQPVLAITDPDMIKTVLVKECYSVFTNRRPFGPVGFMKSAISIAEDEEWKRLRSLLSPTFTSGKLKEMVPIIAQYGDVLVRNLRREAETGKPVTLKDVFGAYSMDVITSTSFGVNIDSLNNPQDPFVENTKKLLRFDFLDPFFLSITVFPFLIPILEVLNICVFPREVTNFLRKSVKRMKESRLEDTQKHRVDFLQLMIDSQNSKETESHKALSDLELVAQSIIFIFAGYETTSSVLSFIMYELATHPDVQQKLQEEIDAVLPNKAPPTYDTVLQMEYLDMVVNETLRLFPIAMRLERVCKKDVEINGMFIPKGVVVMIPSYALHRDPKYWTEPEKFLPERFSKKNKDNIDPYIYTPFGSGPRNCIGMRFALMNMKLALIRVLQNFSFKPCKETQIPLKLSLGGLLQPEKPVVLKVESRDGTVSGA
The next data set has as its target Cytochrome P450 2D6 (Homo sapiens, UniProt P10635).
Where [1] appears, read: HEK293 cells that express hERG, probe [3H]astemizole.

Each structure is given as a SMILES string.

Sequence of Histamine H3 receptor (Q9Y5N1 whole entry): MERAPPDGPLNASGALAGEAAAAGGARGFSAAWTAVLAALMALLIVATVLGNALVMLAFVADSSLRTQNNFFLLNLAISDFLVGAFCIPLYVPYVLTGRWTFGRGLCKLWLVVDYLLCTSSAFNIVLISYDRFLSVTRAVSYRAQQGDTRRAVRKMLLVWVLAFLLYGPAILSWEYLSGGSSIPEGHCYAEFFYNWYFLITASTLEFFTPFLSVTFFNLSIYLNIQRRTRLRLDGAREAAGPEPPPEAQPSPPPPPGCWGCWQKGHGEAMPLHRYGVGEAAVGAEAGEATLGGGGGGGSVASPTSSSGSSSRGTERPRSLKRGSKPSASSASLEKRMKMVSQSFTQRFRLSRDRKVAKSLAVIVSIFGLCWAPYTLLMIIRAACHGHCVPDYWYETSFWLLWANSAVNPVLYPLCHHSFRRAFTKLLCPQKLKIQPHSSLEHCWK
Sequence of hERG (KCNH2) (Q12809 whole entry): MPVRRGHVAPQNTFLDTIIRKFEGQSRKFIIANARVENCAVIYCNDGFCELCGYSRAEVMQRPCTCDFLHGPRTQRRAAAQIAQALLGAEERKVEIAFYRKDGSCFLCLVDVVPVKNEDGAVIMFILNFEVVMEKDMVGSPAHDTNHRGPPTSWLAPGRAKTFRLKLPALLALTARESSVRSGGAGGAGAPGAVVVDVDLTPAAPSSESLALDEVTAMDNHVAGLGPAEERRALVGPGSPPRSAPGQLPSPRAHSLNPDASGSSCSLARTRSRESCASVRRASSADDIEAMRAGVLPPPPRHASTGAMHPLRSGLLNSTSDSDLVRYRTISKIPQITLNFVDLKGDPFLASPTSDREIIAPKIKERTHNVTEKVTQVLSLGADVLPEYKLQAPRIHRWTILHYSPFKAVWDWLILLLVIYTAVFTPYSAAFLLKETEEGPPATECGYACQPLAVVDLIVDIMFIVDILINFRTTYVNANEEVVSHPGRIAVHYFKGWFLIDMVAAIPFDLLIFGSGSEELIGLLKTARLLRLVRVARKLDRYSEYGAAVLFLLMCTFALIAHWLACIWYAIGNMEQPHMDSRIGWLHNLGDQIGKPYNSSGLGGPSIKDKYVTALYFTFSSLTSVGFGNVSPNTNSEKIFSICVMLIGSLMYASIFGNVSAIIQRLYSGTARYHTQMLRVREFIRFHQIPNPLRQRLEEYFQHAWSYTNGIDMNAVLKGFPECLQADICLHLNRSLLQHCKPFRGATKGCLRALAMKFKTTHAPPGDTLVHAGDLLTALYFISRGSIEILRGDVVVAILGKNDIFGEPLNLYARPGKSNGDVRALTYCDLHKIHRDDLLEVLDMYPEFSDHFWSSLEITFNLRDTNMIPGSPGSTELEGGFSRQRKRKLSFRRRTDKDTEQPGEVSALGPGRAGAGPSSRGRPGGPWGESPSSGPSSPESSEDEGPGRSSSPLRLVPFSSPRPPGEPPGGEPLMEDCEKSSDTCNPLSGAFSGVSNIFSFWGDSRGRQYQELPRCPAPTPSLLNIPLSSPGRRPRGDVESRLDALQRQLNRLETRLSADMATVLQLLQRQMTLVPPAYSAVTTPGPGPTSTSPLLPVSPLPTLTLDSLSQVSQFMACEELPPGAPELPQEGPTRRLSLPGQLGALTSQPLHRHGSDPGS
Sequence of Cytochrome P450 2D6 (P10635 whole entry): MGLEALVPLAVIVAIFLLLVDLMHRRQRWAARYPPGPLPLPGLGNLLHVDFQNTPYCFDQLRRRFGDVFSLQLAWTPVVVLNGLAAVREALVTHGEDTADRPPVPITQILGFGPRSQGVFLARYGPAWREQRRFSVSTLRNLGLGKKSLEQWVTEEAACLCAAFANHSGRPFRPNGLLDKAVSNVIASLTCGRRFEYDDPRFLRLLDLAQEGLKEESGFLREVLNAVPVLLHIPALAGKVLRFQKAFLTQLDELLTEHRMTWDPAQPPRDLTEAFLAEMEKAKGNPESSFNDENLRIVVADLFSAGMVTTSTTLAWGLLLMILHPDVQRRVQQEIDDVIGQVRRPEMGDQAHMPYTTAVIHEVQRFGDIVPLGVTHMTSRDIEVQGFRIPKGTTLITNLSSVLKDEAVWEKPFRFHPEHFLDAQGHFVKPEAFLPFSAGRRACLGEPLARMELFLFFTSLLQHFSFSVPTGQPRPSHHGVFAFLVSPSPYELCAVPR

The term inhibition denotes the share of the control response that was lost under treatment. Lower therefore signals a weak effect. On hERG (KCNH2) (setting [1]), `O=C(N1CCN(C2CCCC2)CC1)N1Cc2ccccc2C1` yielded an inhibition at 10 µM of 45%.

Broadly, the Ki is the equilibrium dissociation constant of an inhibitor or competing ligand from its target. Low readings indicate higher affinity, high ones lower affinity. Turning to `CC(C)N1CCN(C(=O)NCc2ccc(Cl)c(Cl)c2)CC1`, the Ki at Histamine H3 receptor is given as 20 nM (antagonist). Turning to `COc1cccc(CNC(=O)N2CCC[C@H]2CN2CCCC2)c1`, the Ki on Histamine H3 receptor was 188 nM (antagonist).

Consider `CC(C)N1CCN(C(=O)NCc2ccc(Oc3ccccc3)cc2)CC1`, for which the inhibition constant Ki on Histamine H3 receptor was 34 nM (antagonist). Broadly, the IC50 is the midpoint of a concentration-inhibition curve. A higher IC50 goes with lower potency. Regarding `CC(C)N1CCN(C(=O)N2CCC(C(=O)OC(C)(C)C)CC2)CC1`, the concentration for half-maximal inhibition (IC50) against Cytochrome P450 1A2, on Cytochrome P450 3A4 and on Cytochrome P450 2D6 was greater than 25 µM in each case. The inhibition at 10 µM at hERG (KCNH2) (setting [1]) is 9%. Consider `CC(C)N1CCN(C(=O)NC2Cc3ccccc3C2)CC1`, for which, on Histamine H3 receptor, the Ki is listed as 30 nM (antagonist). For the molecule `O=C(/C=C/c1ccc(Cl)cc1)N1CCC[C@H]1CN1CCCC1`, the Ki at Histamine H3 receptor is on record as 11.2 nM (antagonist). On to `O=C(NC1Cc2ccccc2C1)N1CCN(C2CCCC2)CC1`, for which the inhibitory constant (Ki) at Histamine H3 receptor is 29 nM (antagonist).

As to `O=C(NCc1ccc(-c2ccccc2)cc1)N1CCC[C@H]1CN1CCCC1`, the Ki on Histamine H3 receptor is 87 nM (antagonist). The same measure, in the same setting: under `CCN1CCN(C(=O)N[C@@H]2C[C@H]2c2ccccc2)CC1` stands 40 nM (antagonist). Molecule `CC(C)N1CCN(C(=O)N2CC=C(c3ccccc3)CC2)CC1` registered an inhibition at 10 µM at hERG (KCNH2) (hek293) of 31%. For the molecule `CC(C)N1CCN(C(=O)N2CCC(Cc3ccccc3)CC2)CC1`, at hERG (KCNH2) (hek293), at 10 µM the inhibition was 21%. In the case of `COc1ccc(CNC(=O)N2CCC[C@H]2CN2CCCC2)cc1`, the inhibition constant Ki at Histamine H3 receptor is on record as 295 nM (antagonist). Consider `NCc1ccc(CNC(=O)N2CCC[C@H]2CN2CCCC2)cc1`, for which the Ki on Histamine H3 receptor was 109 nM (antagonist).

Regarding `O=C(/C=C/c1ccc(OC(F)(F)F)cc1)N1CCC[C@H]1CN1CCCC1`, the inhibition constant (Ki) at Histamine H3 receptor is 13.4 nM (antagonist). As for `O=C(N1CCN(C2CC2)CC1)N1Cc2ccccc2C1`, at hERG (KCNH2) (setting [1]), the inhibition at 10 µM is 16%. With `O=C(NC1Cc2ccccc2C1)N1CCC[C@H]1CN1CCCC1`, the inhibition constant Ki on Histamine H3 receptor is reported as 52 nM (antagonist).

`O=C(/C=C/c1ccc(-c2ccccc2)cc1)N1CCC[C@H]1CN1CCCC1`: on Histamine H3 receptor, the inhibitory constant (Ki) is 3.7 nM (antagonist).

For the molecule `O=C(NCc1ccc(Cl)c(Cl)c1)N1CCC[C@H]1CN1CCCC1`, on Histamine H3 receptor, the inhibitory constant (Ki) is 47 nM (antagonist). Same read-out and setting: under `CCN1CCN(C(=O)NC2Cc3ccccc3C2)CC1` stands 44 nM (antagonist); under `O=C(NCc1ccccc1)N1CCC[C@H]1CN1CCCC1`, 196 nM (antagonist); under `NCc1cccc(CNC(=O)N2CCC[C@H]2CN2CCCC2)c1`, 78 nM (antagonist). The same measure, in the same setting: under `O=C(NCc1ccc(OC(F)(F)F)cc1)N1CCC[C@H]1CN1CCCC1` stands 121 nM (antagonist); under `O=C(NCCc1ccccc1)N1CCC[C@H]1CN1CCCC1`, 226 nM (antagonist); under `O=C(NCC1CCCCC1)N1CCC[C@H]1CN1CCCC1`, 458 nM (antagonist). On the same count and under the same terms, under `O=C(NCc1cccc(C(F)(F)F)c1)N1CCC[C@H]1CN1CCCC1` stands 117 nM (antagonist).

With `COc1cc2c(cc1OC)CN(C(=O)N1CCN(C(C)C)CC1)CC2`, testing at 10 µM on hERG (KCNH2) (setting [1]) gave an inhibition of 8%. As for `O=C(NCc1ccc(Cl)c(Cl)c1)N1CCN(C2CCCC2)CC1`, the Ki at Histamine H3 receptor was 15 nM (antagonist). `CN(Cc1ccc(-c2ccccc2)cc1)C(=O)N1CCC[C@H]1CN1CCCC1` returned an inhibition at 10 µM at hERG (KCNH2) (setting [1]) of 66%. In the case of `O=C(NCc1ccccc1)N1CCN(C2CCCC2)CC1`, the inhibition constant (Ki) at Histamine H3 receptor is 94 nM (antagonist). Still for that read-out and setting: the value for `O=C(NCc1ccc(Oc2ccccc2)cc1)N1CCN(C2CCCC2)CC1` was 38 nM (antagonist).

Regarding `O=C(NCc1ccc(Oc2ccccc2)cc1)N1CCC[C@H]1CN1CCCC1`, the Ki on Histamine H3 receptor was 34 nM (antagonist). In the case of `CC(C)N1CCN(C(=O)N2CCC(NC(=O)C3CCCC3)CC2)CC1`, the figures for the concentration for half-maximal inhibition (IC50) at Cytochrome P450 1A2, against Cytochrome P450 3A4 and at Cytochrome P450 2D6 were greater than 25 µM, greater than 25 µM and 17 µM, respectively. The same molecule returned an inhibition at 10 µM at hERG (KCNH2) (hek293) of 6%. Consider `CC(C)N1CCN(C(=O)N2CCC(C(=O)N3CC4CCC(CC4)C3)CC2)CC1`, for which the IC50 against Cytochrome P450 1A2, at Cytochrome P450 3A4 and at Cytochrome P450 2D6 was greater than 25 µM throughout. Also, at hERG (KCNH2) (hek293), 10 µM produced 8% inhibition. Take `CC(C)N1CCN(C(=O)N(C)Cc2ccc(-c3ccccc3)cc2)CC1`: the inhibition constant (Ki) on Histamine H3 receptor was 37 nM (antagonist). At hERG (KCNH2) (setting [1]), this molecule yielded an inhibition at 10 µM of 55%. On hERG (KCNH2) (setting [1]), `O=C(N1Cc2ccccc2C1)N1CCC[C@H]1CN1CCCC1` returned an inhibition at 10 µM of 26%. With `O=C(NCc1ccc(Cl)cc1)N1CCC[C@H]1CN1CCCC1`, the Ki at Histamine H3 receptor is listed as 165 nM (antagonist).

The values above are taken from ChEMBL document CHEMBL1137244, “Ureas with histamine H3-antagonist receptor activity--a new scaffold discovered by lead-hopping from cinnamic acid amides” (Bioorg Med Chem Lett, 2006).
